# Measured values published in patent US11220503B2, “Phthalazine derivatives, preparation method, pharmaceutical composition and usage thereof” (Shanghai SIMR Biotech Co., Ltd., priority 2015, dated 2022).
# Tests used:
# [1] = target: T1, α5β3γ2 receptor (Homo sapiens, UniProt P18507+P31644); assay: Cell level screening: whole cell patch clamp, inverse agonist efficacy; format: cell-based; settings: for inhibition at 0.1 µM: HEK293, compound 100 nM, GABA 0.05-0.1 μM, HEK293 α5β3γ2, clamped at −60 mV, (Ipost-Ipre)*100/Ipre, read-out: inverse agonism efficacy(%); for inverse agonism efficacy of the compound/α5IA inverse agonism efficacy: ratio to α5IA, compound 100 nM
# T1 construct: expressed in transfected cells; host or cells: HEK-293 (stably transfected)
# T1 sequence (P31644 32-462): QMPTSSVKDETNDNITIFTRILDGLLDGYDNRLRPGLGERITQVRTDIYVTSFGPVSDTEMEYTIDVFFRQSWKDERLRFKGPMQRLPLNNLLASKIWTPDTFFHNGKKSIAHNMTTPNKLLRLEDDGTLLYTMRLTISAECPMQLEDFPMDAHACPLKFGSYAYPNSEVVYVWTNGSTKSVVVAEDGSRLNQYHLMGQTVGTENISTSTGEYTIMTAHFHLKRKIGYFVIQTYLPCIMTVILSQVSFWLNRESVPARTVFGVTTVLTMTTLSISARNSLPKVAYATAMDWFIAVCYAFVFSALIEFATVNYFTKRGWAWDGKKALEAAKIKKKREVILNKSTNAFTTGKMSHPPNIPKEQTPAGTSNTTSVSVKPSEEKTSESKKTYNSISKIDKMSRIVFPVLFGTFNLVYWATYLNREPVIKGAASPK
# T1 sequence (P28472 26-473 isoform P28472-2 partner limits assumed): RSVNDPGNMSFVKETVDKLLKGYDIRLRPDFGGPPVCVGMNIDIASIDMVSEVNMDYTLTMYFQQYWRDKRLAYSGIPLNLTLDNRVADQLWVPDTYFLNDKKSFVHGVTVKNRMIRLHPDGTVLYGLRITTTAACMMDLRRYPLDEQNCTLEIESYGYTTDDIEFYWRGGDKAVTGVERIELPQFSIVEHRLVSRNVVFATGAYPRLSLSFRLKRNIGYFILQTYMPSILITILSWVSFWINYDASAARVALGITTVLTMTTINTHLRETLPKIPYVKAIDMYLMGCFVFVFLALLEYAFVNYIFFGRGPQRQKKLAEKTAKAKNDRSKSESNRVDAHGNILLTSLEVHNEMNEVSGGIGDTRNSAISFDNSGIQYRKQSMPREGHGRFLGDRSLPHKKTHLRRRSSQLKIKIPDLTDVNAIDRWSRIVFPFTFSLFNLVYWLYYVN
# T1 sequence (P18507 40-475): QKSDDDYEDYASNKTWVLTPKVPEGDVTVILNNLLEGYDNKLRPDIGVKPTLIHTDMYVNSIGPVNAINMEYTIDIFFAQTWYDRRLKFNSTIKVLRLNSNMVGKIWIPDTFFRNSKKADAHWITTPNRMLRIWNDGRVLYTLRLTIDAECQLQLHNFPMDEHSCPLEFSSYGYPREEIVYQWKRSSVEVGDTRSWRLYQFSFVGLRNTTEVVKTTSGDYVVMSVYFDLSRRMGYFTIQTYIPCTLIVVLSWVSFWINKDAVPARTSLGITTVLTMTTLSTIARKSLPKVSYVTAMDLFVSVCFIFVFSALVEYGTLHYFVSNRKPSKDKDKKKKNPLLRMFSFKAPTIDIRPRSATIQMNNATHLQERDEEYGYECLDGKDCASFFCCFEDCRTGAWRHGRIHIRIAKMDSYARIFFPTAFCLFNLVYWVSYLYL
# Method: (§1) The inventors used electrophysiological methods to assay the inverse agonist efficacy of the substance to be tested. The detailed procedures are as follows: (1) Different subunits of GABAA receptors were expressed in human embryonic kidney cells 293 (HEK293). The cells were cultured in a culture medium and used as a cell model for screening potential analgesics. The α, β and γ subunits are necessary to form complete functional GABAA receptors. In this example, the inventor has established the following cell model: (a) α5 subunit (protein sequence is GenBank accession number: NP_001158509), β3 subunit (protein sequence is GenBank accession number: NP_068712) and γ2 subunit (protein sequence is GenBank accession number: NP_944494) were expressed in HEK-293 cell lines at the same time, which formed the complete functional GABAA receptors. (2) Cells were stably transfected HEK-293 cells expressing α5β3γ2 receptor, which were labeled by green fluorescent protein (GFP). Cells were grown in 10 cm dishes. The cells were passaged after reaching 80-90% confluence. During passaging, the culture medium was removed and discarded, 3 mL DMEM medium (Gibco™) was added to the dishes, the dishes were shaken slightly, and DMEM was removed and discarded. 3 mL Trypsin (Trypsin-EDTA 0.05%, Gibco™) was added and cells were digested at 37° C. for 3 minutes. Then 3 mL complete growth medium (DMEM+10% horse serum (Gibco™)) was added and the cells at the bottom of the culture dishes were dispersed. The cell suspension were transferred to a 15 mL centrifugal tube (Corning®) and then centrifuged at 200 g for 3 minutes. The supernatant was discarded, 4 mL complete growth medium was added, and the cells were resuspended by gently blowing. The cell suspension was diluted by 1:5 or 1:10 for subculturing. The cell suspension was diluted by 1:12 for electrophysiology experiment, which are added to the 24 well plate (Corning®) which has a glass slide pre-treated with poly-D-lysine. The cells were adhered to the slide before the experiment was conducted. The cells were maintained in culture for no more than 24 hours before use. (3) Compound concentration: for screening, all compounds were diluted to a final concentration of 100 nM. GABA was diluted at the concentration of 0.05-0.1 μM. The compounds were at the concentration of 1 nM, 10 nM, 50 nM, 100 nM and 1000 nM in dose-inverse agonism efficacy (%) experiment. The whole cell patch clamp technique was used in electrophysiology experiments. The extracellular solution (ECS) contained: 150 mM NaCl, 5 mM KCl, 2.5 mM CaCl2, 1 mM MgCl2, 10 mM HEPES and 10 mM glucose (pH 7.4); Patch electrodes were filled with an intracellular solution containing: 140 mM KCl, 5 mM EGTA, 10 mM HEPES (adjusted to pH 7.4 with KOH and to 320-330 mOsm with water). The currents were recorded by an EPC-10 amplifier and the PatchMaster software (HEKA). Patch electrodes with a resistance of 5-6 MΩ were pulled from borosilicate glass (Sutter). The diluted compounds were perfused by OCTAFLOWII system. GFP positive and independently growing cells were selected for recording. During recording, the membrane voltage was clamped at −60 mV. During experiment, the cells were firstly perfused with ECS for 20 seconds. When the baseline reached to a stable state, cells were then perfused with GABA solution. Then the current induced by GABA can be detected. After about 20-40 seconds, the current was stable. ECS was switched to compounds solution and the effects of the compounds were detected. At last, the perfusion solution was switched to ECS. The experiment was finished when the post-baseline returned to the pre-baseline before compounds perfusion. Only the data whose pre-baseline and post-baseline are at almost the same level were used for analysis. GABA was diluted at the concentration of 0.05-0.1 μM in ECS. Then, compounds were diluted at the desired concentration in GABA ECS. (4) Currents were analyzed with the PatchMaster (HEKA) software. […]
# [2] = target: T1, α5β3γ2 receptor; assay: Supplementary data for cell level screening: new electrophysiology method (I. Lecker et al); format: cell-based; settings: for Inverse agonism efficacy(%): new method, CsCl intracellular solution, GABA 0.1˜0.3 CM, other procedures as previous method; for inverse agonism efficacy of the compound/α5IA inverse agonism efficacy: ratio to the α5IA reference run above in the table (r4 or r29)
# Method: as §1, with “GABA was diluted at the concentration of 0.05-0.1 μM.” left out, “[…],” for “Patch electrodes were filled with an intracellular solution containing: 140 mM KCl,”, “([…]” for “(adjusted to pH 7.4 with KOH and to 320-330 mOsm with”, “GABA was diluted at the concentration of 0.05-0.1 μM in ECS.” left out, “software. The GABA currents before (Ipre) and after (Ipost) compounds perfusion were recorded respectively. The efficacies of compounds were calculated by the following equation: inverse agonism efficacy=(Ipost-Ipre)*100/Ipre. N indicates experiment numbers.” for “software.”
inhibition at 0.1 µM [1] [%],inverse agonism efficacy of the compound/α5IA inverse agonism efficacy [1],Inverse agonism efficacy(%) [2] [%],inverse agonism efficacy of the compound/α5IA inverse agonism efficacy [2],Compound
58,2.572,−18.67,1.075,"Cc1cc(-c2nnc3c4ccccc4c(OCc4ccc(C(=O)NN5CCOCC5)cn4)nn23)no1 [Compound 01, 6-((3-(5-methylisoxazol-3-yl)-[1,2,4]triazolo[3,4-a]phthalazin-6-yloxy)methyl)-N-morpholinonicotinamide]"
52.2,2.313,−21.33,1.229,"Cc1cc(-c2nnc3c4ccccc4c(OCc4ccc(C(=O)N[C@H](C)CO)cn4)nn23)no1 [Compound 02, (R)—N-(1-hydroxypropan-2-yl)-6-((3-(5-methylisoxazol-3-yl)-[1,2,4]triazolo[3,4-a]phthalazin-6-yloxy)methyl)nicotinamide]"
41.3,1.832,−29.33,1.689,"Cc1cc(-c2nnc3c4ccccc4c(OCc4ccc(C(=O)N[C@H]5CCC[C@@H]5O)cn4)nn23)no1 [Compound 03, N-((1S,2S)-2-hydroxycyclopentyl)-6-(((3-(5-methylisoxazol-3-yl)-[1,2,4]triazolo[3,4-a]phthalazin-6-yl)oxy)methyl)nicotinamide]"
40,1.774,−52.5,3.023,"CC(C)NC(=O)c1ccc(COc2nn3c(-c4cc(CO)on4)nnc3c3ccccc23)nc1 [Compound 38, 6-(((3-(5-(hydroxymethyl)isoxazol-3-yl)-[1,2,4]triazolo[3,4-a]phthalazin-6-yl)oxy)methyl)-N-iso propylnicotinamide]"
49,2.174,−26,1.497,"O=C(NCCO)c1ccc(COc2nn3c(-c4cc(CO)on4)nnc3c3ccccc23)nc1 [Compound 39, N-(2-hydroxyethyl)-6-(((3-(5-(hydroxymethyl)isoxazol-3-yl)-[1,2,4]triazolo[3,4-a]phthalazin-6-yl)oxy)methyl)nicotinamide]"
29,1.286,−25.5,1.468,"O=C(c1ccc(COc2nn3c(-c4cc(CO)on4)nnc3c3ccccc23)nc1)N1CCS(=O)(=O)CC1 [Compound 40, (1,1-dioxidothiomorpholino)(6-(((3-(5-(hydroxymethyl)isoxazol-3-yl)-[1,2,4]triazolo[3,4-a]phthalazin-6-yl)oxy)methyl)pyridin-3-yl)methanone]"
,,−20.8,1.196,"O=C(NC1CCOCC1)c1ccc(COc2nn3c(-c4cc(CO)on4)nnc3c3ccccc23)nc1 [Compound 44, 6-(((3-(5-(hydroxymethyl)isoxazol-3-yl)-[1,2,4]triazolo[3,4-a]phthalazin-6-yl)oxy)methyl)-N-(tetrahydro-2H-pyran-4-yl)nicotinamide]"
,,−22.2,1.278,"O=C(c1ccc(COc2nn3c(-c4cc(CO)on4)nnc3c3ccccc23)nc1)N1CCC1 [Compound 49, azetidin-1-yl-(6-(((3-(5-(hydroxymethyl)isoxazol-3-yl)-[1,2,4]triazolo[3,4-a]phthalazin-6-yl)oxy)methyl)pyridin-3-yl)methanone]"
,,−22.8,1.313,"CS(=O)(=O)NNC(=O)c1ccc(COc2nn3c(-c4cc(CO)on4)nnc3c3ccccc23)nc1 [Compound 53, N′-(6-(((3-(5-(hydroxymethyl)isoxazol-3-yl)-[1,2,4]triazolo[3,4-a]phthalazin-6-yl)oxy)methyl)nicotinoyl)methanesulfonohydrazide]"
,,−27.6,1.589,"N#Cc1cc(C(=O)N[C@H]2CCC[C@@H]2O)ccc1COc1nn2c(-c3cc(CO)on3)nnc2c2ccccc12 [Compound 56, 3-cyano-N-((1S,2S)-2-hydroxycyclopentyl)-4-(((3-(5-(hydroxymethyl)isoxazol-3-yl)-[1,2,4]triazolo[3,4-a]phthalazin-6-yl)oxy)methyl)benzamide]"
